# Experimental data as given in ChEMBL document CHEMBL1201862, “PubChem BioAssay data set” (2004).
# Activity calls are given as the source filed them.
# Legend:
# [1] = target: Glyceraldehyde-3-phosphate dehydrogenase (Homo sapiens, UniProt P04406)
# [2] = target: T1, Bcl-2-related protein A1 (Mus musculus, UniProt Q07440); assay: small-molecule antagonists of Bfl-1/BH3 interaction – biochemical, TR-FRET, mouse Bfl-1, confirmation (AID 621);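 note: TR-FRET binding of GST-Bfl-1 to FITC-labelled Bid peptide via terbium antibody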
# T1 sequence (Q07440 whole entry): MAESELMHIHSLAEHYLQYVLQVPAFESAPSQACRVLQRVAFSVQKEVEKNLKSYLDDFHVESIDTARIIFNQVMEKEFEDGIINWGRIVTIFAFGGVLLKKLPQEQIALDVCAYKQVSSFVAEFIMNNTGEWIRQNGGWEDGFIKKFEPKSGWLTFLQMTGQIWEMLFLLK
# [3] = target: T1, Bcl-2-related protein A1; assay: Bfl-1 binding inhibitors, SAR follow-up, biochemical, fluorescence polarization (AID 1070)
# [4] = target: T2, Tyrosine-protein phosphatase non-receptor type 7 (Homo sapiens, UniProt P35236); assay: HePTP tyrosine phosphatase activity blockers – biochemical, absorbance, leukemia target, primary screen (AID 521); assay type: functional
# T2 sequence (P35236 whole entry): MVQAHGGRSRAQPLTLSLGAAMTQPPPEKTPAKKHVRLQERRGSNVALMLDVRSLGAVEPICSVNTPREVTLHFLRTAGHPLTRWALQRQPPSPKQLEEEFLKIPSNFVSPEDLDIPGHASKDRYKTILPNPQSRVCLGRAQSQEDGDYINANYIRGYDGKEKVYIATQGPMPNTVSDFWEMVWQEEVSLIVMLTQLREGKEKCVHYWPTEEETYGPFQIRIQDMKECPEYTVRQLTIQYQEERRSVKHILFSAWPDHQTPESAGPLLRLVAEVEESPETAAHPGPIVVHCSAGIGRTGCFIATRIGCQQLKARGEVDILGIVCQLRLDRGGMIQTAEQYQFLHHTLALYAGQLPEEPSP
# [5] = Trypanosoma cruzi growth suppression in host cells – NIH3T3 host cells, beta-gal luminescence, confirmation (AID 2044); assay type: functional, cell-based;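 note: intracellular parasites grown in NIH/3T3 mouse fibroblasts as host cells; luminescent beta-galactosidase reporter signal from transgenic T. cruzi replicating inside host cells; inhibitors lower the luminescence signal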
# [6] = NIH3T3 cell viability loss – ATP luminescence, mouse fibroblasts, counter-screen, dose response (AID 2010); assay type: functional, cell-based;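 note: cells exposed to compound for about 90 hours before reading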
# [7] = cells
# [8] = target: Voltage-gated inwardly rectifying potassium channel KCNH2 (Homo sapiens, UniProt Q12809); assay: concentration-dependent hERG rescue from blockers – cell-based, thallium flux, dose response (AID 2121); assay type: ADME
# Voltage-gated inwardly rectifying potassium channel KCNH2, sequence (Q12809 whole entry): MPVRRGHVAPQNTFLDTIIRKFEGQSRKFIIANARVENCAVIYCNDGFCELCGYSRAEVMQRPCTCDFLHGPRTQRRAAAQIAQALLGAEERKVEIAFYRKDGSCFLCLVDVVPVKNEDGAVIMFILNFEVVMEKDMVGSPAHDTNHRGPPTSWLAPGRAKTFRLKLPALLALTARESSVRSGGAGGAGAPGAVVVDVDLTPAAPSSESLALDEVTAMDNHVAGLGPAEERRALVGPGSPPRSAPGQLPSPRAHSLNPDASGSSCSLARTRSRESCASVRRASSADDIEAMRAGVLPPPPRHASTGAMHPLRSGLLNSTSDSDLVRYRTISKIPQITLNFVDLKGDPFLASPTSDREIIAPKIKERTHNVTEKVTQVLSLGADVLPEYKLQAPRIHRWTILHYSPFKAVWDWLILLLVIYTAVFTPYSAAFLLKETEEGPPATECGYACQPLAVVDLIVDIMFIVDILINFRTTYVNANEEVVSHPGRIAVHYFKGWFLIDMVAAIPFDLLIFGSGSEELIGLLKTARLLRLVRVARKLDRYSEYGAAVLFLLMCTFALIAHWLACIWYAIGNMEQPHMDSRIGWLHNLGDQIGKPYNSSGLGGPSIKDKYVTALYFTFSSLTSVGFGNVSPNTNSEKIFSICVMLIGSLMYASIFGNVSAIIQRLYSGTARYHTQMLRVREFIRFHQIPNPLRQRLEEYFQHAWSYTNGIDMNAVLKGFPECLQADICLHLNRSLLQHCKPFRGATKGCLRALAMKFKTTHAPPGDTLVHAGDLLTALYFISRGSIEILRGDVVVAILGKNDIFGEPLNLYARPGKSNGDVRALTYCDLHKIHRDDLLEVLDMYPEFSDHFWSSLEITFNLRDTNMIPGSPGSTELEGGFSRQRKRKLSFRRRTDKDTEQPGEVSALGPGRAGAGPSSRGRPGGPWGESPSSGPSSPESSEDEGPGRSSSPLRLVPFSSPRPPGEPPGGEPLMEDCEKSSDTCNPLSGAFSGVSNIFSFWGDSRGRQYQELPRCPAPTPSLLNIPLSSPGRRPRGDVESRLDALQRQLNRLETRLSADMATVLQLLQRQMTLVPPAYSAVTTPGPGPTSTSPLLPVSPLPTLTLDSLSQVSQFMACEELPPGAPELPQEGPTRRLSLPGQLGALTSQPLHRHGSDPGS
# [9] = target: Fatty acid synthase (Homo sapiens, UniProt P49327); assay: inhibition of human FAS-TE enzyme activity – biochemical, kinetic fluorescence intensity, dose response (AID 624326); assay type: functional;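 note: rate of fluorescence rise from hydrolysis of a fluorogenic O-methyl fluorescein ester substrate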
# Fatty acid synthase, sequence (P49327 whole entry): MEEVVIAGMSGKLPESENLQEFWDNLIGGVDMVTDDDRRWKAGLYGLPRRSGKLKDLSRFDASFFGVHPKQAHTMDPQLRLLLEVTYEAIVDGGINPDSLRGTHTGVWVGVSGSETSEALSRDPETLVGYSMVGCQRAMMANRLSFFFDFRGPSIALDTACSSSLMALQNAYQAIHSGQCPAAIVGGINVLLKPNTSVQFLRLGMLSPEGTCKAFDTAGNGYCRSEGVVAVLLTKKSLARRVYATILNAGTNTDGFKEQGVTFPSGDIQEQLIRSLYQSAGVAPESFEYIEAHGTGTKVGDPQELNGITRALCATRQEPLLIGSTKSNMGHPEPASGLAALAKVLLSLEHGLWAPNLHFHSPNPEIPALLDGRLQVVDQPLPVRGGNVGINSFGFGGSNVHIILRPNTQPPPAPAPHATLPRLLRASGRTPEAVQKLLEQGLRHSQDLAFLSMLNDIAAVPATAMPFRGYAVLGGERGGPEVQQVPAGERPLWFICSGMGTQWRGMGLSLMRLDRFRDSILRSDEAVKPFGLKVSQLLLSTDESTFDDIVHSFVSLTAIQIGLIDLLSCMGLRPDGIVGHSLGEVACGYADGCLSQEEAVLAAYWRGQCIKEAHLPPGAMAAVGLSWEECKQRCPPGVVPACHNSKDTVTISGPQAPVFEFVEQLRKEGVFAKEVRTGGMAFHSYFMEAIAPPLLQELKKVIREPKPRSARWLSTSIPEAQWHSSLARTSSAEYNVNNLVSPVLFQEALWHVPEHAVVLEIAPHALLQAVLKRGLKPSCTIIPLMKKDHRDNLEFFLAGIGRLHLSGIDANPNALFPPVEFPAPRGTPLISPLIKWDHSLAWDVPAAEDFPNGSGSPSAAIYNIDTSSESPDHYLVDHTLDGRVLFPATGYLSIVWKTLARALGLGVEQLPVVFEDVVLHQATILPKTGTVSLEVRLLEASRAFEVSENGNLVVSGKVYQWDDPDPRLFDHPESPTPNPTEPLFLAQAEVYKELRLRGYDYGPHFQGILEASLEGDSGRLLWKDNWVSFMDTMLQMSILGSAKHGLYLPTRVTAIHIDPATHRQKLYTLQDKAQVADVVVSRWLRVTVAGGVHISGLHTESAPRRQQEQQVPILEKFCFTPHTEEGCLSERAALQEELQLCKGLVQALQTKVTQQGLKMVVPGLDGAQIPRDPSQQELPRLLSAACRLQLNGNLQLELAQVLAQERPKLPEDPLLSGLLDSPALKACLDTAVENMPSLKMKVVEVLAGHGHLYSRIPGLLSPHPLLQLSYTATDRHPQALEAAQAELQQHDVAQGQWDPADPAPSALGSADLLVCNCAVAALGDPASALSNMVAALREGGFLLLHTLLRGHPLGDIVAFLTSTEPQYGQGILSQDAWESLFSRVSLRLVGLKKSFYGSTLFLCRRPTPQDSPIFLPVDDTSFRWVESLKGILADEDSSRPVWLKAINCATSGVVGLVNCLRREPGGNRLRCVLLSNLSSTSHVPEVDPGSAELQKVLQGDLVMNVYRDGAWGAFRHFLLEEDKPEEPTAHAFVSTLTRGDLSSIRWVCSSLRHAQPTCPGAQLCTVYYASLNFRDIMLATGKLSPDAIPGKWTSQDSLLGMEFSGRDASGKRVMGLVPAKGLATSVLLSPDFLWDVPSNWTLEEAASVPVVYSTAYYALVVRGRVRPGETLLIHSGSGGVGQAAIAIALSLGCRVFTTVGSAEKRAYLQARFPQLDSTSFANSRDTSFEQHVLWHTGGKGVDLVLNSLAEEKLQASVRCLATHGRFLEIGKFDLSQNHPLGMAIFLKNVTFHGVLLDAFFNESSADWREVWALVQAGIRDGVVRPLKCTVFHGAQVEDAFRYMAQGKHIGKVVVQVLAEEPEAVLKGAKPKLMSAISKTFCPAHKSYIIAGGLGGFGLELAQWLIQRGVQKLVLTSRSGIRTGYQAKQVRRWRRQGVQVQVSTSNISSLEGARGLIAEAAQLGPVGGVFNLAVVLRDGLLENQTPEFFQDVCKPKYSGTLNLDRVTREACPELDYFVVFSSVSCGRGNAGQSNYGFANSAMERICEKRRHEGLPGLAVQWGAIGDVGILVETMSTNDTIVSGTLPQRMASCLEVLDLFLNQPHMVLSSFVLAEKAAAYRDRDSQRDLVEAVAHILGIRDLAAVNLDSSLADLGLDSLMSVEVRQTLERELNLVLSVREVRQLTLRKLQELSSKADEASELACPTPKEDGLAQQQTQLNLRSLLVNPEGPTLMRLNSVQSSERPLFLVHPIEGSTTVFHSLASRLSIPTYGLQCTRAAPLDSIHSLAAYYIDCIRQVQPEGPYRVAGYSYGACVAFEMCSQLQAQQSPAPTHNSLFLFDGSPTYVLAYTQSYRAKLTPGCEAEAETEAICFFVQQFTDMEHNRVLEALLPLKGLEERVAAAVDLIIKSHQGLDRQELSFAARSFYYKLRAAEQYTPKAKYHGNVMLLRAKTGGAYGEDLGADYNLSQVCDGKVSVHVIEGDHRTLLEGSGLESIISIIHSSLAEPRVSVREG
# [10] = target: T3, Mannose-6-phosphate isomerase (Homo sapiens, UniProt P34949); assay: MPI inhibition at elevated mannose 6-phosphate – biochemical, fluorescence intensity, high mannose 6-phosphate, primary screen (AID 1220)
# T3 sequence (P34949 whole entry): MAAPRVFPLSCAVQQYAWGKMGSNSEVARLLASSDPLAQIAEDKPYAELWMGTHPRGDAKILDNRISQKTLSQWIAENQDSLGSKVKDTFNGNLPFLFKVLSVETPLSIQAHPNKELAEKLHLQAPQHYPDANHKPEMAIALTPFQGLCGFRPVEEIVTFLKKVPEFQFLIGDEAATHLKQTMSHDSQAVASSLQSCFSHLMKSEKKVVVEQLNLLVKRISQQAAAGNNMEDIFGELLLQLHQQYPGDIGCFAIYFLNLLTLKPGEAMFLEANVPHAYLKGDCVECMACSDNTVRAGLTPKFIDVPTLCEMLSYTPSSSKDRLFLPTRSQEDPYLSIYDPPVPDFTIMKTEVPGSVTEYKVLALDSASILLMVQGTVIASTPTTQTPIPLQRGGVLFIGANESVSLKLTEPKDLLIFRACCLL
# [11] = target: T4, Heat shock factor protein 1 (Mus musculus, UniProt P38532); assay: enhancement of HSF1-driven luciferase signal – cell-based, NIH3T3, luminescence, dose retest, confirmation (AID 435004); assay type: functional;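 note: stress induced by proteasome inhibitor MG132 added 30 min after compound; luciferase reporter driven by HSF1 response element in NIH3T3 cells; actives raise luminescence as potentiators of the MG132 stress response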
# T4 sequence (P38532 whole entry): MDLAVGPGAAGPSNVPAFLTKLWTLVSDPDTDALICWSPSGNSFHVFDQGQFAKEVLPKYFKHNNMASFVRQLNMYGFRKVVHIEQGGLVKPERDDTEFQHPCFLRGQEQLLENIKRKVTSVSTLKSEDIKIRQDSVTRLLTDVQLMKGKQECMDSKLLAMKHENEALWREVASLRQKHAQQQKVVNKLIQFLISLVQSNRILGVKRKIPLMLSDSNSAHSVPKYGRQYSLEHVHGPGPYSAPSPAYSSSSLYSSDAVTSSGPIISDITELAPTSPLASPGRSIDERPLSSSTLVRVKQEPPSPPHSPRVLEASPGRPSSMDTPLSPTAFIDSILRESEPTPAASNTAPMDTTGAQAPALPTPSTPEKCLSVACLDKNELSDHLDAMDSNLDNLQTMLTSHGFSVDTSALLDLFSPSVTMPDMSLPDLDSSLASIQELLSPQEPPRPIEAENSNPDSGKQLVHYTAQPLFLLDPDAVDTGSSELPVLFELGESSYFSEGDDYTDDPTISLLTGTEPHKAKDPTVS
# [12] = target: T5, Replicative DNA helicase DnaB (Mycobacterium tuberculosis, UniProt P9WMR3); assay: DnaB intein splicing inhibitors, dose response, biochemical, cell-free fluorescence (AID 449749); assay type: functional
# T5 sequence (P9WMR3 whole entry): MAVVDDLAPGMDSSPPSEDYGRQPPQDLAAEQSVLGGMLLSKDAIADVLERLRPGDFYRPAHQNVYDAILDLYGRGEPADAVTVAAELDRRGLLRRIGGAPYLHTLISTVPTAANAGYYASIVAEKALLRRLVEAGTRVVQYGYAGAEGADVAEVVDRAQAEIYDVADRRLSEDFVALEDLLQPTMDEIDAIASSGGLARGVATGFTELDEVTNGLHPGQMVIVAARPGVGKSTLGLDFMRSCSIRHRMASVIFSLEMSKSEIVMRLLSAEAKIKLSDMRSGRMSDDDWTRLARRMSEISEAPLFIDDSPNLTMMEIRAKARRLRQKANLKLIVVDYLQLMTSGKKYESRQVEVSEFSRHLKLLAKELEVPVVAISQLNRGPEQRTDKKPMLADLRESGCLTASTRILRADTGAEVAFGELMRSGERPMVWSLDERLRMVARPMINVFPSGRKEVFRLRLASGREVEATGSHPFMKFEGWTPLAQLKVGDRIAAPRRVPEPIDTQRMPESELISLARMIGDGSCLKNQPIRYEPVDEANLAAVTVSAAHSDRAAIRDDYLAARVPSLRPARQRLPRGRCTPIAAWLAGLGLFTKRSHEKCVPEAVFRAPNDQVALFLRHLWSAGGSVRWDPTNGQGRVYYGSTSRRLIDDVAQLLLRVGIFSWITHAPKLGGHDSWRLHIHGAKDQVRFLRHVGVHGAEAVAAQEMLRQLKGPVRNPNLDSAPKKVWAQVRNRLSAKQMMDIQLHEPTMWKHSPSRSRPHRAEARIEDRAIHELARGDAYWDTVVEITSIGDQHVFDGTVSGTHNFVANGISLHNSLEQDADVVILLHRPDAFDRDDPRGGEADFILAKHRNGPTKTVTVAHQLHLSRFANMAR
# [13] = tested on: Vero; assay: viability of Vero cells under compound – cytotoxicity control for flavivirus capping enzyme inhibitors (AID 588742); assay type: functional; settings: Chlorocebus sabaeus
# [14] = target: T6, Protein RecA (Mycobacterium tuberculosis, UniProt P9WHJ3); assay: Fluorescence Cell-Free Homogeneous Dose Retest to Identify Inhibitors of RecA-Intein Splicing Activity. [Related pubchem assays (depositor defined):AID2097, AID2223, AID489010, AID492950]; assay type: functional
# T6 sequence (P9WHJ3 whole entry): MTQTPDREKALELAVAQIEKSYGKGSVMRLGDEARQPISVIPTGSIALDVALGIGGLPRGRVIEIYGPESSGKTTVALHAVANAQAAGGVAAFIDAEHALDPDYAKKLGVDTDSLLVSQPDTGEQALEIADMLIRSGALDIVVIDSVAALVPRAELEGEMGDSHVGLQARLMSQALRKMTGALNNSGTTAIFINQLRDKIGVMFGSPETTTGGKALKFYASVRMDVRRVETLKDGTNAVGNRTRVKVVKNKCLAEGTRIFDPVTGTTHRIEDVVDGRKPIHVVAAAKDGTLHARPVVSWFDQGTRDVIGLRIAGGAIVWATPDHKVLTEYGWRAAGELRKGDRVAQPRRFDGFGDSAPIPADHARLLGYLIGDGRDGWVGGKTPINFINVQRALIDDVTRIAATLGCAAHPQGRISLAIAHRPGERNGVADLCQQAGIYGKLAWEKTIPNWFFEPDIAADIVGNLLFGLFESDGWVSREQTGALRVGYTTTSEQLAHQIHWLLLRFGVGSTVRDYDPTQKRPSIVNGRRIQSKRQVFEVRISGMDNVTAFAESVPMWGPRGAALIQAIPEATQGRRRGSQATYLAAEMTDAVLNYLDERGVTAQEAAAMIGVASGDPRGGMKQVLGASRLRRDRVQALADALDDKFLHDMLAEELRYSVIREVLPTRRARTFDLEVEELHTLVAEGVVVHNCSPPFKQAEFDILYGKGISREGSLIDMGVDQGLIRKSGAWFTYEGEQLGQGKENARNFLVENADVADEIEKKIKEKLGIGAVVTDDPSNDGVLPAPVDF
# [15] = target: Genome polyprotein (dengue virus type 2, UniProt P29990); assay: flavivirus cap methylation enzyme inhibition – biochemical, confirmation dose response, primary screen (AID 588689); assay type: functional
# Genome polyprotein, sequence (P29990 2492-3391 limits assumed): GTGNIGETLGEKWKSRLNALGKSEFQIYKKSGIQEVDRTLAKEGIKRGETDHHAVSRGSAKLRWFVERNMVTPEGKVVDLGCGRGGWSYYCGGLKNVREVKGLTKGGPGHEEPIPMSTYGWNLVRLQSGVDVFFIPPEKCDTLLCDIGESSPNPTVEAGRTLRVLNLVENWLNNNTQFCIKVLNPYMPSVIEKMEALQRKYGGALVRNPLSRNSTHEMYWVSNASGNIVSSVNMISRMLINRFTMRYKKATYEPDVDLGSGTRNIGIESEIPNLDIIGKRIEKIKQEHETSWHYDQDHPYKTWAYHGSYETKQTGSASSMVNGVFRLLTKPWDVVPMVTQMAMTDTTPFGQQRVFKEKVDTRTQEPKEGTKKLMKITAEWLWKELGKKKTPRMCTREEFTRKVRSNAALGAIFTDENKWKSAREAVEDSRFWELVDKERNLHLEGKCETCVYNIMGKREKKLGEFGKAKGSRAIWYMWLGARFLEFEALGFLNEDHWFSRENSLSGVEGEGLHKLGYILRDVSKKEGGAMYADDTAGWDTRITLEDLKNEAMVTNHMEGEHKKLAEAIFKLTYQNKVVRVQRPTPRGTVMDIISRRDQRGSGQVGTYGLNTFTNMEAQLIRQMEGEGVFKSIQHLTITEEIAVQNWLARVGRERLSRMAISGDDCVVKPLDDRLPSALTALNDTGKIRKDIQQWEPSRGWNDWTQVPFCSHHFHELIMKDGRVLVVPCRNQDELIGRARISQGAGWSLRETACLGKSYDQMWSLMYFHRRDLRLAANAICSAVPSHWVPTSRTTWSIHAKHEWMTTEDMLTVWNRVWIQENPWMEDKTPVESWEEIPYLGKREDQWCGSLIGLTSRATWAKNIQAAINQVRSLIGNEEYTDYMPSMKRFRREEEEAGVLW
# [16] = target: T7, Rac GTPase-activating protein 1 (Homo sapiens, UniProt Q9H0H5); assay: blockers of MgcRacGAP-driven Rac1 GTP hydrolysis – biochemical, ADP Hunter fluorescence, primary and confirmatory, confirmation (AID 624330); assay type: functional
# T7 sequence (Q9H0H5 whole entry): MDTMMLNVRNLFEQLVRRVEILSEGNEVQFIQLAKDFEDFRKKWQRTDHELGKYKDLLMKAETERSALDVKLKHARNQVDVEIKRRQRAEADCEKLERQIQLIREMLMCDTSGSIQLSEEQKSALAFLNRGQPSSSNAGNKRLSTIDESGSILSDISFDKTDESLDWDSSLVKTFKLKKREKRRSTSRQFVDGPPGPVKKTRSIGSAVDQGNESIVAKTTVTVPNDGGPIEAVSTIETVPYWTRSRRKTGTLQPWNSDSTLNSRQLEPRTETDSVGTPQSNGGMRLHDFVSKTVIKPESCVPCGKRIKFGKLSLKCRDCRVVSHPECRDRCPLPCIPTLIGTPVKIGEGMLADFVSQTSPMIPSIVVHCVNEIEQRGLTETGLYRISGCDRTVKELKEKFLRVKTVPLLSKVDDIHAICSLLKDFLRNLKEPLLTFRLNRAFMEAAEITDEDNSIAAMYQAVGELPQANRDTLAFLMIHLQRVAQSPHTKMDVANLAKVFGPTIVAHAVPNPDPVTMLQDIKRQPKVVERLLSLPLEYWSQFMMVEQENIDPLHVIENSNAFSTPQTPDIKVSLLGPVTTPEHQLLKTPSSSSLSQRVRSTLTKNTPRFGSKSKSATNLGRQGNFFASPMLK
# Glyceraldehyde-3-phosphate dehydrogenase, sequence (P04406 whole entry): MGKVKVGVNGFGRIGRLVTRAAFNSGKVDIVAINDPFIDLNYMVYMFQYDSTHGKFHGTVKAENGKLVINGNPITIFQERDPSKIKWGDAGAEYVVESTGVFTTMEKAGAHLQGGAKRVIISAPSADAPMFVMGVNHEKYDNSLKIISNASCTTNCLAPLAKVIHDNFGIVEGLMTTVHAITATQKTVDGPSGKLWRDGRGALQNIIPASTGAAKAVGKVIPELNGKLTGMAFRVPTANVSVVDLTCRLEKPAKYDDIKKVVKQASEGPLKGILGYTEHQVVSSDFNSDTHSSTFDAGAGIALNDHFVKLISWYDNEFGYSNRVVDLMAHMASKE
structure (smiles),measurement,setting,value
O=C1C(Cl)=C(N2CCCC2)C(=O)N1c1ccc(Cl)c(Cl)c1,IC50,[1],> 100 µM (not active)
same,IC50,[2],> 100 µM (not active)
same,IC50,[3],> 100 µM (not active)
Cc1ccc(-n2nnc(-c3cnc4ccccc4c3)n2)cc1,IC50,[2],> 100 µM (not active)
same,IC50,[3],> 100 µM (not active)
CNC(=O)N(c1ccccc1)c1ccccc1,IC50,[4],> 100 µM (not active)
CCOC(=O)N1CCN(S(=O)(=O)c2ccc(C(=O)N(CCN(C)C)c3nc4ccc(Cl)cc4s3)cc2)CC1,EC50,[5],< 0.1 µM (active)
same,EC50,[6],> 60 µM (not active)
same,EC50,[7],0.07 µM (active)
Cc1cccc(N2CCN(C(=O)CNC(=O)c3cccc([N+](=O)[O-])c3)CC2)c1C,EC50,[8],0.38 µM (active)
same,IC50,[9],1.51 µM (active)
Cc1ccsc1C(=O)C1CCCN(Cc2c(C)nn(C(C)C)c2C)C1 (configuration not stated),EC50,[5],< 0.1 µM (active)
same,EC50,[6],> 60 µM (not active)
same,EC50,[7],0.008 µM (active)
FC(F)(F)c1cnc2c(c1)nc(S)n2-c1ccc(Cl)cc1,EC50,[8],4.84 µM (active)
COc1ccc2c(c1)-c1nc(/N=C/c3c(O)ccc4ccccc34)sc1CC2,IC50,[10],13 µM (active)
same,EC50,[11],> 260 µM (inactive)
same,AC50,[12],40.8 µM (active)
same,CC50,[13],> 40 µM (active)
same,EC50,[14],> 380 µM (inconclusive)
same,IC50,[15],6.25 µM (active)
same,IC50,[16],22.2 µM (active)
